# Like-named read-outs stand apart in the source and are kept apart here.
# Columns and labels:
# [1] = tested on: four pancreatic cancer cell lines (AsPC1, Hs766T, MiaPaCa2, Panc1); assay type: cell-based, human
# From the text: These include a large panel of novel targets for silencing by histone deacetylation including several known tumor suppressor genes or cell cycle-regulatory genes (ING1, p57KIP2, CHES1, CHFR, GADD45B, and others).
# [2] = tested on: MiaPaCa2 pancreatic cancer cell line
# Procedure: Mock-treated cells were cultured with the equivalent volume of PBS alone.
# Total RNA was isolated from cultured cells using TRIZOL reagent (invitrogen, Carlsbad, Calif.) and purified using RNeasy Mini Kit (Qiagen, Valencia, Calif.). First- and second-stranded cDNA was synthesized from 10 μg of total RNA using 17-dT) primer (Genset Corp., La Jolla, Calif.) and Superscript Choice system (Invitrogen). Labeled cRNA was synthesized from the purified cDNA by in vitro transcription reaction using the BioArray High Yield RNA Transcript Labeling Kit (Enzo Diagnostics, Inc., Farmingdale, N.Y.) at 37° C. for 6 h. The cRNA was fragmented at 94° C. for 35 min. in a fragmentation buffer [40 mM Tris-acetate @ pH 8.1, 100 mM potassium acestate, and 30 mM magnesium acetate]. The fragmented cRNA was then hybridized to the Human Genome U133A chips (Affymetrix, Santa Clara, Calif.) with 18462 unique gene/EST transcripts at 45° C. for 16 h. The washing and staining procedure was performed in the Affymetrix Fluidics Station according to the manufacturer's instructions. The probes were then scanned using a laser scanner, and signal intensity for each transcript (background-subtracted and adjusted for noise) was calculated using Microarray Suite Software 5.0 (Affymetrix).
# Fold change analysis of signal intensities obtained from oligonucleotide microarrays between the two treatment groups was performed using Data Mining software (Afrymetrix).
# The global changes in gene expression proxies induced by 5Aza-dC in four pancreatic cancer cell lines (AsPCl, Hs766T, MiaPaCa2, and Panel) were determined using the Afrymetrix U133 oligonucleotide microarrays with 18462 probes sets (transcripts) covering over 13000 full-length sequences of known genes.
compound,measurement,setting,value
"CC(/C=C/C(=O)NO)=C\[C@@H](C)C(=O)c1ccc(N(C)C)cc1 [TSA, trichostatin A]",changes in phenotypes during the treatment period,[1],did not result in apparent changes in their phenotypes
same,Induced by TSA alone?,[1]; ANGPT2,No
same,Induced by TSA alone?,[1]; BARD1,No
same,Induced by TSA alone?,[1]; BIK,Yes
same,Induced by TSA alone?,[1]; BNIP3,Yes
same,Induced by TSA alone?,[1]; BNIP3 (Table 3),Yes
same,Induced by TSA alone?,[1]; BST2,No
same,Induced by TSA alone?,[1]; BST2 (Table 3),No
same,Induced by TSA alone?,[1]; CACNA1G,Yes
same,Induced by TSA alone?,[1]; CASP5,No
same,Induced by TSA alone?,[1]; CCNA1,No
same,Induced by TSA alone?,[1]; CCNE2,No
same,Induced by TSA alone?,[1]; CDC25A,No
same,Induced by TSA alone?,[1]; CDH3,No
same,Induced by TSA alone?,[1]; CDKN1A (p21),No
same,Induced by TSA alone?,[1]; CDKN1C,Yes
same,Induced by TSA alone?,[1]; CDKN2A (p16),No
same,Induced by TSA alone?,[1]; CLDN5,No
same,Induced by TSA alone?,[1]; CLDN7,No
same,Induced by TSA alone?,[1]; CRIP 1,Yes
same,Induced by TSA alone?,[1]; CRLF1,Yes
same,Induced by TSA alone?,[1]; CSF1,Yes
same,Induced by TSA alone?,[1]; CSF3,No
same,Induced by TSA alone?,[1]; Cdc42 effector protein 2,No
same,Induced by TSA alone?,[1]; DAPK2,No
same,Induced by TSA alone?,[1]; DAZL,Yes
same,Induced by TSA alone?,[1]; DEAD box RNA helicase (VASA),No
same,Induced by TSA alone?,[1]; DR3,No
same,Induced by TSA alone?,[1]; FOXE1,No
same,Induced by TSA alone?,[1]; GAGE1,Yes
same,Induced by TSA alone?,[1]; GAGE2,Yes
same,Induced by TSA alone?,[1]; GAGE3,Yes
same,Induced by TSA alone?,[1]; GAGE4,Yes
same,Induced by TSA alone?,[1]; GAGE6,Yes
same,Induced by TSA alone?,[1]; GAGE7,Yes
same,Induced by TSA alone?,[1]; GAGE7B,Yes
same,Induced by TSA alone?,[1]; GAS1,No
same,Induced by TSA alone?,[1]; HOXA1,No
same,Induced by TSA alone?,[1]; HSPA1A,Yes
same,Induced by TSA alone?,[1]; IGF2,No
same,Induced by TSA alone?,[1]; IL1R1,No
same,Induced by TSA alone?,[1]; ISG20,No
same,Induced by TSA alone?,[1]; ITM3,Yes
same,Induced by TSA alone?,[1]; JPH3,No
same,Induced by TSA alone?,[1]; KLK10,No
same,Induced by TSA alone?,[1]; KRT17,No
same,Induced by TSA alone?,[1]; LDOC1,No
same,Induced by TSA alone?,[1]; LHX1,No
same,Induced by TSA alone?,[1]; LHX2,No
same,Induced by TSA alone?,[1]; LIPC,No
same,Induced by TSA alone?,[1]; MAGE1,Yes
same,Induced by TSA alone?,[1]; MAGEC1,Yes
same,Induced by TSA alone?,[1]; MATN1,Yes
same,Induced by TSA alone?,[1]; MLH1,Yes
same,Induced by TSA alone?,[1]; NEFH,Yes
same,Induced by TSA alone?,[1]; NK4,Yes
same,Induced by TSA alone?,[1]; NPTX2,Yes
same,Induced by TSA alone?,[1]; PAX6,No
same,Induced by TSA alone?,[1]; PAX6 (Table 3),No
same,Induced by TSA alone?,[1]; PDYN,No
same,Induced by TSA alone?,[1]; PIG11 (Table 3),No
same,Induced by TSA alone?,[1]; PLAT,No
same,Induced by TSA alone?,[1]; PLEK2,No
same,Induced by TSA alone?,[1]; PRG1,Yes
same,Induced by TSA alone?,[1]; S100A2,No
same,Induced by TSA alone?,[1]; S100P,No
same,Induced by TSA alone?,[1]; SALL1,No
same,Induced by TSA alone?,[1]; SARP2,No
same,Induced by TSA alone?,[1]; SARP2 (Table 3),No
same,Induced by TSA alone?,[1]; SGCE,Yes
same,Induced by TSA alone?,[1]; SMARCA1,No
same,Induced by TSA alone?,[1]; SPANXC,Yes
same,Induced by TSA alone?,[1]; ST14,Yes
same,Induced by TSA alone?,[1]; STAT3,Yes
same,Induced by TSA alone?,[1]; TERT,No
same,Induced by TSA alone?,[1]; TIMP3,No
same,Induced by TSA alone?,[1]; TJP2,No
same,Induced by TSA alone?,[1]; TNF,No
same,number of the 11 genes with aberrantly methylated CpG islands whose expression was induced,[1]; TSA alone,4 genes
same,Induced by TSA alone?,[1]; UCHL1,Yes
same,Induced by TSA alone?,[1]; UCHL1 (Table 3),Yes
same,Induced by TSA alone?,[1]; WISP2,No
same,Induced by TSA alone?,[1]; WIT-1,No
same,Induced by TSA alone?,[1]; WNT7A,Yes
same,Induced by TSA alone?,[1]; XAGE-1,Yes
same,Induced by TSA alone?,[1]; XAGE-1 (Table 3),Yes
same,Induced by TSA alone?,[1]; activity-regulated cytoskeleton-associated protein (APC),Yes
same,Induced by TSA alone?,[1]; aik3,Yes
same,Induced by TSA alone?,[1]; basic fibroblast growth factor (FGF),Yes
same,Induced by TSA alone?,"[1]; cytovillin 2 (VIL2, ezrin)",No
same,Induced by TSA alone?,[1]; granulocytemacrophage colony-stimulating factor (M11734),Yes
same,Induced by TSA alone?,"[1]; interferon, alpha-inducible protein (NM_022873)",Yes
same,Induced by TSA alone?,[1]; junction adhesion molecule (AF154005),Yes
same,Induced by TSA alone?,[1]; matrix metalloproteinase 8 (MMP3),No
same,Induced by TSA alone?,[1]; nucleotide-binding site protein 1 (AF298547),Yes
same,Induced by TSA alone?,[1]; p53-induced protein (PIGII),No
same,Induced by TSA alone?,[1]; reprimo,No
same,Induced by TSA alone?,[1]; stratifin (14-3-3 sigma),Yes
same,Induced by TSA alone?,[1]; stromal antigen 3 (STAG5),Yes
same,Induced by TSA alone?,"[1]; synovial sarcoma, X breakpoint 2 (AF257500)",Yes
same,Induced by TSA alone?,[1]; testin,Yes
same,Induced by TSA alone?,[1]; transketolase-like protein (X91817),Yes
"Nc1ncn([C@H]2C[C@H](O)[C@@H](CO)O2)c(=O)n1 [5Aza-dC, 5 aza 2′ deoxycytidine]",Fold-change after 5Aza-dC treatment,"[2]; ANGPT2, MiaPaCa2",2.27 fold
same,Fold-change after 5Aza-dC treatment,"[2]; BARD1, MiaPaCa2",−1.3 fold
same,Fold-change after 5Aza-dC treatment,"[2]; BNIP3, MiaPaCa2",21.32 fold
same,Fold-change after 5Aza-dC treatment,"[2]; BST2, MiaPaCa2",8.59 fold
same,Fold-change after 5Aza-dC treatment,"[2]; CACNA1G, MiaPaCa2",1.61 fold
same,Fold-change after 5Aza-dC treatment,"[2]; CCNE2, MiaPaCa2",1.09 fold
same,Fold-change after 5Aza-dC treatment,"[2]; CDH3, MiaPaCa2",5.79 fold
same,Fold-change after 5Aza-dC treatment,"[2]; CDKN1A (p21), MiaPaCa2",7.04 fold
same,Fold-change after 5Aza-dC treatment,"[2]; CDKN1C, MiaPaCa2",2.28 fold
same,Fold-change after 5Aza-dC treatment,"[2]; CLDN5, MiaPaCa2",1.67 fold
same,Fold-change after 5Aza-dC treatment,"[2]; CSF1, MiaPaCa2",4.23 fold
same,Fold-change after 5Aza-dC treatment,"[2]; DR3, MiaPaCa2",2.12 fold
same,Fold-change after 5Aza-dC treatment,"[2]; FOXE1, MiaPaCa2",3.8 fold
same,Fold-change after 5Aza-dC treatment,"[2]; GAGE1, MiaPaCa2",6.7 fold
same,Fold-change after 5Aza-dC treatment,"[2]; GAGE3, MiaPaCa2",15.22 fold
same,Fold-change after 5Aza-dC treatment,"[2]; GAGE4, MiaPaCa2",47.6 fold
same,Fold-change after 5Aza-dC treatment,"[2]; GAGE6, MiaPaCa2",24.03 fold
same,Fold-change after 5Aza-dC treatment,"[2]; GAGE7, MiaPaCa2",54.35 fold
same,Fold-change after 5Aza-dC treatment,"[2]; HOXA1, MiaPaCa2",2.56 fold
same,Fold-change after 5Aza-dC treatment,"[2]; IGF2, MiaPaCa2",0.81 fold
same,Fold-change after 5Aza-dC treatment,"[2]; IL1R1, MiaPaCa2",−1.77 fold
same,Fold-change after 5Aza-dC treatment,"[2]; ISG20, MiaPaCa2",21.28 fold
same,Fold-change after 5Aza-dC treatment,"[2]; JPH3, MiaPaCa2",1.4 fold
same,Fold-change after 5Aza-dC treatment,"[2]; KLK10, MiaPaCa2",136.95 fold
same,Fold-change after 5Aza-dC treatment,"[2]; LDOC1, MiaPaCa2",−1.01 fold
same,Fold-change after 5Aza-dC treatment,"[2]; LHX1, MiaPaCa2",1.89 fold
same,Fold-change after 5Aza-dC treatment,"[2]; MAGE1, MiaPaCa2",2.27 fold
same,Fold-change after 5Aza-dC treatment,"[2]; MATN1, MiaPaCa2",−1.01 fold
same,"transcripts with >5-fold increase, share of the 18462 transcripts analyzed",[2]; MiaPaCa2,1.4%
same,transcripts with substantial increase (>5-fold) in signal intensities,"[2]; MiaPaCa2, vs mock-treated",251 transcripts
same,Fold-change after 5Aza-dC treatment,"[2]; NEFH, MiaPaCa2",6.73 fold
same,Fold-change after 5Aza-dC treatment,"[2]; NPTX2, MiaPaCa2",6.4 fold
same,Fold-change after 5Aza-dC treatment,"[2]; PAX6, MiaPaCa2",−1.12 fold
same,Fold-change after 5Aza-dC treatment,"[2]; PDYN, MiaPaCa2",3.48 fold
same,Fold-change after 5Aza-dC treatment,"[2]; PLAT, MiaPaCa2",6.4 fold
same,Fold-change after 5Aza-dC treatment,"[2]; PLEK2, MiaPaCa2",7.5 fold
same,Fold-change after 5Aza-dC treatment,"[2]; SARP2, MiaPaCa2",38.33 fold
same,Fold-change after 5Aza-dC treatment,"[2]; SMARCA1, MiaPaCa2",−1.07 fold
same,Fold-change after 5Aza-dC treatment,"[2]; ST14, MiaPaCa2",1.48 fold
same,Fold-change after 5Aza-dC treatment,"[2]; TIMP3, MiaPaCa2",1 fold
same,Fold-change after 5Aza-dC treatment,"[2]; TJP2, MiaPaCa2",8.61 fold
same,Fold-change after 5Aza-dC treatment,"[2]; TNF, MiaPaCa2",31.63 fold
same,Fold-change after 5Aza-dC treatment,"[2]; UCHL1, MiaPaCa2",5.27 fold
same,Fold-change after 5Aza-dC treatment,"[2]; WNT7A, MiaPaCa2",6.24 fold
same,Fold-change after 5Aza-dC treatment,"[2]; XAGE-1, MiaPaCa2",12.99 fold
same,Fold-change after 5Aza-dC treatment,"[2]; granulocytemacrophage colony-stimulating factor (M11734), MiaPaCa2",3.97 fold
same,Fold-change after 5Aza-dC treatment,"[2]; interferon, alpha-inducible protein (NM_022873), MiaPaCa2",11.03 fold
same,Fold-change after 5Aza-dC treatment,"[2]; p53-induced protein (PIGII), MiaPaCa2",5.45 fold
same,Fold-change after 5Aza-dC treatment,"[2]; reprimo, MiaPaCa2",−1.09 fold
same,Fold-change after 5Aza-dC treatment,"[2]; stratifin (14-3-3 sigma), MiaPaCa2",34.77 fold
same,Fold-change after 5Aza-dC treatment,"[2]; stromal antigen 3 (STAG5), MiaPaCa2",4.96 fold
same,Fold-change after 5Aza-dC treatment,"[2]; testin, MiaPaCa2",9.61 fold

# — patent US8785614B2, “Aberrantly methylated genes in pancreatic cancer” (The Johns Hopkins University, priority 2003, dated 2014)
